In data set [1] the test system is gastric constriction. The data set is described as follows: Inhibitory effect on gastric peristaltic movement (carbachol-constricted isolated stomach, Magnus tank). Further details: species or system ICR mice. The settings on record: test peptides 10^−6 M, carbachol 3×10^−6 M, 15 minutes after drug administration, level of peptide 9 (control drug) = 100.
A short description of data set [2]: physchem. The data set is classed as physicochemical. The settings on record: buffer or solvent. On the procedure: Adequate amounts of peptides 4, 12, 21, and 23 were fractionated via weighing and then dissolved in distilled water (Otsuka Distilled Water) adjusted at pH levels of 6.0 and 7.0 to bring the final concentration to 10 μg/ml. The resulting solutions were allowed to stand in an incubator at 55° C. (FC-610, Advantec) for 3 days, and reverse phase HPLC analysis was carried out (wavelength: 220 nm; mobile phase: acetonitrile (29.5%)/trifluoroacetic acid (0.1%); column: ODS-120T (Tosoh); column temperature: 25° C.) to examine the quantities of remaining peptides 4, 12, 21, and 23. […] This was particularly apparent at pH 7.0.

Data set [3] is described as follows: Stability of peptide 4 in distilled water, 40° C., 24 hours (reverse phase HPLC). Format: physicochemical. On the procedure:
Peptide 4, a modified peptide, having a higher Arg content than wild-type VIP was weighed and fractionated to about 1 mg, the fractions were dissolved in distilled water adjusted to pH levels of 4.0, 5.0, 6.0, and 7.0 (Otsuka Distilled Water), and the final concentration was adjusted to 10 μg/ml. The resulting solutions were allowed to stand in an incubator at 40° C. (LH20-11M, Nagano Kagaku) for 24 hours, analysis was carried out via reverse phase HPLC (wavelength: 220 nm; mobile phase: 28% acetonitrile/0.1% trifluoroacetic acid; column: ODS-120T (Tosoh); column temperature: 25° C.), and the amount of remaining peptide 4 was examined.

The nature of data set [4]: physchem. The data set is classed as physicochemical. The conditions noted are these: pH 7; for remaining at 240 h, 100 μg/ml / remaining at 480 h, 100 μg/ml / remaining at 720 h, 100 μg/ml: buffer or solvent. On the procedure: Adequate amounts of peptides 4, 12, 21, and 23 were fractionated via weighing and then dissolved in distilled water (Otsuka Distilled Water) adjusted at the pH level of 7.0 to bring the final concentration to 100 μg/ml. The resulting solutions were allowed to stand in an incubator at 55° C. (FC-610, Advantec) for 0, 10, 20, and 30 days, respectively, and reverse phase HPLC analysis was carried out (wavelength: 220 nm; mobile phase: acetonitrile (29.5%)/trifluoroacetic acid (0.1%); column: ODS-120T (Tosoh); column temperature: 25° C.) to examine the amount of remaining peptides 4, 12, 21, and 23.

The nature of data set [5]: physchem. The data set is classed as physicochemical. The conditions noted are these: for remaining at 168 h, 100 μg/ml: buffer. Here is the method: (§1) Adequate amounts of peptides 4, 12, 21, and 23 were fractionated via weighing and then dissolved in phosphate buffers (aqueous solution of 0.001% sodium dihydrogen phosphate) adjusted to pH levels of 6.0 and 7.0 to bring the final concentration to 100 μg/ml. The resulting solutions were allowed to stand in a thermo-hygrostat (LH-20-11, Nagano Kagaku) at 40° C. and 75% RH for a week, and reverse phase HPLC analysis was carried out (wavelength: 220 nm; mobile phase: acetonitrile (29.5%)/trifluoroacetic acid (0.1%); column: ODS-120T (Tosoh); column temperature: 25° C.) to examine the quantities of remaining peptides 4, 12, 21, and 23.

Data set [6] has as its system PC-12 cells. Nature of the data set: Effect of inducing neurite formation. The data set is classed as cell-based, rat. The settings on record: peptides 100 nM, cultured 3 days, compared to control without peptide and peptide 1. Here is the method: Effect of peptides 1, 4, 12, 21, and 23 for inducing neurite formation were tested in the manner described below. PC-12 cells were cultured in Dulbecco's modified minimum essential medium (DMEM) containing 5% horse serum and 5% fetal calf serum in the presence of 5% CO2 and 95% air at 37° C. Cells were separated from the culture flask with the aid of trypsin, counted using a cytometer, and then the concentration was adjusted to 1.0×10^4 cells/ml. The cell-containing liquid medium was added to a Biocoat type IV collagen-coated 24-well dish in amounts of 1 ml each and then cultured in the presence of 5% CO2 and 95% air at 37° C. for 24 hours. The medium was replaced 24 hours later, and peptides (100 nM) were added at that time. The resultant was continuously cultured for 3 days and then photographed. […] The scale bar in each photograph represents 100 μm.

Data set [7] can be described thus: physchem. Format: physicochemical. The settings on record: pH 7; for remaining at 240 h, 100 μg/ml / remaining at 480 h, 100 μg/ml / remaining at 720 h, 100 μg/ml: buffer. On the procedure: as §1, with “phosphate buffer (an aqueous” for “phosphate buffers (aqueous”, “adjusted at the” for “adjusted to”, “pH level” for “pH levels”, “of” for “of 6.0 and”, “for 0, 10, 20, and 30 days,” for “for a week,”

The test system of data set [8] is PC12 cells. Format: cell-based, rat.
Data set [9] has as its system bronchial smooth muscle. The data set is described as follows: Relaxant effect on bronchial smooth muscle (carbachol-constricted trachea, Magnus tank). The conditions noted are these: carbachol (3×10^−7 M)-induced constriction; peptide 12 cumulative 10^−9 M to 3×10^−6 M, peptides 21 and 23 single 3×10^−6 M; isoproterenol 10^−6 M = 100% relaxation. Also on record: species or system Hartley male guinea pigs.

A short description of data set [10]: Helical content from circular dichroism spectra. The data set is classed as physicochemical. The settings on record: 20 mM Tris-HCl buffer (pH 7.4), calculation by Greenfield et al. Here is the method: VIP (peptide 1, SEQ ID NO: 2), peptide 7 (SEQ ID NO: 8) corresponding to 25 residues at the N-terminus of VIP, and peptide 8 (SEQ ID NO: 9), which is a peptide 7 derivative with its methionine-17 being oxidized, were dissolved in a 20 mM Tris-HCl buffer (pH 7.4), and the circular dichroism spectra thereof were examined using the Jasco J-720 (Jasco Corporation). According to analytical calculation of higher-order structure by Greenfield et al., the helical content of peptide 1 was about 50% (FIG. 2).

Where two headings read alike, the source gives them in different places. Ends that are not written are not given here.

These results are taken from US7332473B2, “Peptides and medicinal compositions containing the same” (priority 2002, dated 2008).

As for “His-Ser-Asp-Ala-Val-Phe-Thr-Asp-Asn-Tyr-Thr-Arg-Leu-Arg-Arg-Gln-Leu-Ala-Val-Arg-Arg-Tyr-Leu-NH2 (HSDAVFTDNYTRLRRQLAVRRYL-NH2) [Peptide 10]”, the “Level of constriction inhibition” value in data set [1] came to 227.
By amount remaining is commonly meant what is left of the initial amount, in per cent. “H-HSDAVFTDNYTRLRRQLAVRRYLNSILNGRR-NH2 [Peptide 4, reference compound]” displayed an amount remaining at 72 h, 10 μg/ml in data set [2] (pH 7) of 67%. Also, the fraction remaining at 24 h in data set [3] (buffer or solvent, pH 5.0, distilled water, 10 μg/ml, 40° C., read-out: Amount of remaining peptide) amounted to 90%. The “peptide degradation (in words)” value in data set [3] (distilled water pH 4.0 to 7.0, 40° C.) was “peptide degradation was significant at around the neutral pH region”. The share remaining at 24 h, 10 μg/ml came out at 91% in data set [3] (pH 4.0, distilled water, 10 μg/ml, 40° C., read-out: Amount of remaining peptide); 93% in data set [3] (pH 6.0, distilled water, 10 μg/ml, 40° C., read-out: Amount of remaining peptide); 84% in [3] (pH 7.0, distilled water, 10 μg/ml, 40° C., read-out: Amount of remaining peptide). For the same substance, the share remaining at 240 h, 100 μg/ml in [4] stood at 0%; in data set [7], 28%. The share remaining at 480 h, 100 μg/ml in data set [4] was determined as 0%; in [7], 13%. In [4], this substance registered a share remaining at 720 h, 100 μg/ml of 0%. Further, the figures for the “stability (in words)” value in [4] and in [7] were “completely disappeared after storage for 10 days” and “disappeared 30 days later”, respectively. The results for the fraction remaining at 168 h, 100 μg/ml in data set [5] (pH 6) and in data set [5] (pH 7) were 53% and 35%, respectively. In data set [6], the “neurite formation (in words)” value is “significantly induced neurite formation”. Further, the “neuroprotective effect, viable cell counts (in words)” value (“neuroprotective effect” below) in [8] is “significantly higher than that of peptide 1”.
As for “H-HSDAVFTANYTRLRRQLAVRRYLAAILGRR-NH2 [Peptide 23]”, the fraction remaining at 72 h, 10 μg/ml in data set [2] (pH 6) was determined as 100%. In data set [4], the amount remaining at 240 h, 100 μg/ml is 62%; the fraction remaining at 480 h, 100 μg/ml worked out at 42%; the amount remaining at 720 h, 100 μg/ml amounted to 30%; the “stability (in words)” value is on record as “still remained 30 days later”. In addition, in data set [5] (pH 6), the amount remaining at 168 h, 100 μg/ml is 100% and the “stability (in words)” value is “significantly improved compared to that of peptide 4”. Besides, in data set [6], the “neurite formation (in words)” value is listed as “significantly induced neurite formation”. In data set [7], this substance came in with a fraction remaining at 240 h, 100 μg/ml of 98%; an amount remaining at 480 h, 100 μg/ml of 89%; an amount remaining at 720 h, 100 μg/ml of 73%. Also, the “effect of relaxing the trachea (in words)” value in data set [9] is reported as “apparent peptide-addition-dependent effect of relaxing the trachea”. In data set [8], the “neuroprotective effect” value was “significantly higher than that of peptide 1”.
Take “His-Ser-Asp-Ala-Val-Phe-Thr-Asp-Asn-Tyr-Thr-Arg-Leu-Arg-Lys-Gln-Met-Ala-Val-Lys-Lys-Tyr-Leu-Asn-Ser-NH2 (HSDAVFTDNYTRLRKQMAVKKYLNS-NH2) [Peptide 7, corresponding to 25 residues at the N-terminus of VIP]”: the helical content result in [10] is “would retain a good deal of such higher-order structure”.
On to “His-Ser-Asp-Ala-Val-Phe-Thr-Asp-Asn-Tyr-Thr-Arg-Leu-Arg-Lys-Gln-Leu-Ala-Val-Lys-Lys-Tyr-Leu-NH2 (HSDAVFTDNYTRLRKQLAVKKYL-NH2) [Peptide 9, reference compound]”, for which the “Level of constriction inhibition” value in [1] is 100.
Consider “His-Ser-Asp-Gly-Ile-Phe-Thr-Asp-Ser-Tyr-Ser-Arg-Tyr-Arg-Arg-Gln-Leu-Ala-Val-Arg-Arg-Tyr-Leu-NH2 (HSDGIFTDSYSRYRRQLAVRRYL-NH2) [Peptide 33]”, for which, in data set [1], the “Level of constriction inhibition” value was found to be 160.
For the substance “His-Ser-Asp-Ala-Val-Phe-Thr-Asp-Asn-Tyr-Thr-Arg-Leu-Arg-Lys-Gln-Met-Ala-Val-Lys-Lys-Tyr-Leu-Asn-Ser-Ile-Leu-Asn-NH2 [Peptide 1, reference compound]”, in data set [10], the helical content entry is “about 50%”. The “neuroprotective effect” value in data set [8] is “significant neuroprotective effects”.
Consider “H-HSDAVFTDNYTRLRRQLAVRRYLAAILGRR-NH2 [Peptide 12]”, for which, in [2] (pH 6), the amount remaining at 72 h, 10 μg/ml was 94%. This substance displayed a share remaining at 72 h, 10 μg/ml in data set [2] (pH 7) of 100%. Also, in data set [4], the amount remaining at 240 h, 100 μg/ml was 49%; the fraction remaining at 480 h, 100 μg/ml worked out at 34%; the share remaining at 720 h, 100 μg/ml amounted to 18%; the “stability (in words)” value is listed as “still remained 30 days later”. In data set [5] (pH 6), the amount remaining at 168 h, 100 μg/ml was 100% and the “stability (in words)” value is reported as “significantly improved compared to that of peptide 4”. In data set [5] (pH 7), this substance displayed an amount remaining at 168 h, 100 μg/ml of 90%. Moreover, the “neurite formation (in words)” value in data set [6] was “significantly induced neurite formation”. For the same substance, in data set [7], the amount remaining at 240 h, 100 μg/ml came out at 84%; the fraction remaining at 480 h, 100 μg/ml was 86%; the share remaining at 720 h, 100 μg/ml was 73%. Besides, the “effect of relaxing the trachea (in words)” value in data set [9] was “apparent peptide-addition-dependent effect of relaxing the trachea”. Besides, the “neuroprotective effect” value in data set [8] was “significantly higher than that of peptide 1”.
With “H-HSDAVFTENYTRLRRQLAVRRYLAAILGRR-NH2 [Peptide 21]”, the amount remaining at 72 h, 10 μg/ml in data set [2] (pH 6) is 93%. Also, in data set [2] (pH 7), the fraction remaining at 72 h, 10 μg/ml was 100%. Besides, in data set [4], the share remaining at 240 h, 100 μg/ml is 29%; the fraction remaining at 480 h, 100 μg/ml was 45%; the share remaining at 720 h, 100 μg/ml is 10%; the “stability (in words)” value was “still remained 30 days later”. In [5] (pH 6), the share remaining at 168 h, 100 μg/ml is 100% and the “stability (in words)” value is on record as “significantly improved compared to that of peptide 4”. Moreover, in data set [5] (pH 7), the fraction remaining at 168 h, 100 μg/ml turned out to be 87%. Also, the “neurite formation (in words)” value in data set [6] is recorded as “significantly induced neurite formation”. In data set [7], this substance returned an amount remaining at 240 h, 100 μg/ml of 100%; a fraction remaining at 480 h, 100 μg/ml of 76%; an amount remaining at 720 h, 100 μg/ml of 59%. The “effect of relaxing the trachea (in words)” value in [9] is “apparent peptide-addition-dependent effect of relaxing the trachea”. In data set [8], the “neuroprotective effect” value is on record as “significantly higher than that of peptide 1”.
